Reference: patent US6335159B1 (The Burnham Institute, priority 1988, dated 2002)

Legend:
Format in all cases: cell-based
[1] = target: T1, RAER chimaeric protein (RARε with hER DNA-binding domain) (Homo sapiens, UniProt P10826, DEL77-136/INS76TNDKGSMAMESAKETRYCAVCNDYASGYHYGVWSCEGCKAFFKRSIQGHNDYMCPATNQCTIDKNRRKSCQAC); assay: Co-transfection CAT assay: RAER chimaeric receptor plus ERE-CAT reporter gene in HeLa cells; conditions: only at high concentrations (3×10^−6 M)
T1 construct: a 304 bp 5′ untranslated region, the complete open reading frame, and a 55 bp 3′ untranslated region; expressed in transfected cells; host or cells: HeLa cells, PECE-RAER expression vector
T1 sequence (P10826 with tags, fused parts or gaps isoform P10826-2): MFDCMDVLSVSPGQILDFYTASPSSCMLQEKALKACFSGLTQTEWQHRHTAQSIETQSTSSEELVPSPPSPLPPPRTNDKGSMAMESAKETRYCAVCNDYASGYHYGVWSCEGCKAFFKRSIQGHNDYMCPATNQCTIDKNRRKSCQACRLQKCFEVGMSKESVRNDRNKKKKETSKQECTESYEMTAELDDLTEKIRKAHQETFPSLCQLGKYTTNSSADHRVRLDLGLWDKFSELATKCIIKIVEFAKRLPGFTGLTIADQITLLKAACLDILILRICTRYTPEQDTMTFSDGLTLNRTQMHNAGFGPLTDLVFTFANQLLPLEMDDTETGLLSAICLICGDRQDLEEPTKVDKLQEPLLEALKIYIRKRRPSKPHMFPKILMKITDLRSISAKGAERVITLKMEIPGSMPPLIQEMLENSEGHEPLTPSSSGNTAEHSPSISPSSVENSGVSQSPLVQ
Protocol: The hybrid receptor was then transfected into susceptible tissue-culture cells together with a reporter gene containing the relevant HRE. The effect of various potential activators of the novel receptor was measured from cells transiently transfected with both genes and grown in the presence and absence of the various ligands.
As a control, cells were treated with calcium phosphate or were transfected with the constitutive pSV2CAT vector. As further controls, cells were also transfected with ERE-CAT and ERE-CAT plus the oestrogen receptor (ER) expression vector pckR2ER and grown in the presence of Est.
After 5 hours, cells were shocked with 10% glycerol for 2 min. Eighteen hours after the start of transfection, steroid hormones or retinoids were added to the medium and cells were incubated for a further 24 hours before harvesting.

[2] = test system: endogenous F9 cell RAR; assay: CAT assay: reporter plasmid only transfected into F9 cells (endogenous RAR); conditions: for induction of CAT activity: G17-2 construct alone
Description: Two different TREs, one the natural myosin heavy chain (MHC) promoter TRE, Izumo, S., et al., Nature, 334, 539 (1988), and the other a synthetic TRE—G17-2—derived from the rat growth hormone promoter, Glass, C. K., et al., Cell, 54, 313-323 (1988), were chosen, both references are incorporated herein by reference. The estrogen responsive element (ERE) used here is derived from the vitellogenin gene, Klein-Hitpass, L., et al., Cell 46, 1053-1061 (1986). As a convenient assay system a cotransfection CAT assay (chloramphenicol transacetylase) was chosen. When. […] Upon induction, MHC and G17-2-TRE constructs yield very similar levels of CAT activity. However, the MHC-TRE-CAT gene is highly constitutive (high basal level activity) whereas the G17-2 construct functions as an ideal RA inducible gene in that we observe a low basal activity and a more than 30 fold induction of CAT activity by RA (FIG. 6a and b). Similar levels of induction were obtained with TRα. F9 cells have been established as a cellular model for RA dependent differentiation and to contain RAR transcripts. Whether the endogenous F9 RAR can also activate the TRE-CAT genes, by transfecting the […] into F9 cells alone was investigated. […] The high basal level observed with the MHC construct prevents observation of a clear induction effect by the endogenous RAR. […]
F9 cells were cotransfected with 5 μg of the expression vectors PECE-RARε or PECE-TRα and 20 μg of the reporter plasmids G17-2 CAT or MHC-CAT. […] Fold activation is expressed as the ratio of relative CAT activity after hormone induction to relative CAT activity without hormone induction. […]
2×10^6 F9 cells were cultured as monolayer on gelatin-coated dishes in alpha-MEM (GIBCO, Santa Clara, Calif.), supplemented by 20% fetal calf serum (FCS), glutamine: and nucleosides as described in Grover, A., et al., J. Cell Biol. 96, […] (1983) which is incorporated herein by reference. […] For accurate determinations of chloramphenicol acetylation, the separated reaction products were cut out from silica plates and quantified in a scintillation counter. […]

[3] = test system: TR and RAR (RARε plus TRα or TRβ); assay: Cotransfection CAT assay: TR and RARε together with TRE-CAT gene (G17-2 CAT) in F9 and CV-1 cells; conditions: only T3 added, TR and RAR cotransfected
Protocol: One possible implication of this finding is that certain genes should be inducible by either hormone (T3) or vitamin (RA) in cells containing both receptors. To zest this hypothesis and to investigate possible positive and/or negative interactions of TR and RAR, both receptors were cotransfected into the same cells together with a TRE-CAT gene. […] Approximately 70% of the maximal activity is observed when only T3 is added. […] In the absence of T3, TR prevents activation of TREs by RARs, while in the presence of T3, TR activates and also allows positive cooperativity with RAR. The dominating regulatory effect can be carried out by both TRα and TRβ on both the RARε (FIG. 9) and the F9 endogenous RAR. Significant repression of RARε activity in F9 cells is observed between RARε: TRα ratios of 1:1 to 4:1.
As shown in FIG. 9(a), 5 μg of PECE-RARε plus 5 μg of PECE-TRα were cotransfected together with 20 μg of G17-2 CAT into F9 cells. As a control, each receptor was also cotransfected with G17-2 CAT individually. Hormones were added as indicated. As shown in FIG. 9(b), 2.5 μg of PECE-TRβ plus 2.5 μg of PECE-RARε were cotransfected with 20 μg of G17-2 CAT into CV-1 cells. As a control, PECE-RARε was also cotransfected with G17-2 individually. Hormones were added as indicated. CAT activity was assayed as described in Example VI.

CC1=C(/C=C/C(C)=C/C=C/C(C)=C/CO)C(C)(C)CCC1 [retinol]
induction of CAT gene expression [1]: some inducing effect

CC1=C(/C=C/C(C)=C/C=C/C(C)=C/C=O)C(C)(C)CCC1 [retinal]
induction of CAT gene expression [1]: some inducing effect

N[C@@H](Cc1cc(I)c(Oc2ccc(O)c(I)c2)c(I)c1)C(=O)O [T3]
induction of CAT activity ([2]; F9 cells, in the presence of T3): no induction | CAT activity, percent of the maximal activity [3]: Approximately 70%

CC1=C(/C=C/C(C)=C/C=C/C(C)=C/C(=O)O)C(C)(C)CCC1 [retinoic acid]
induction of CAT activity ([2]; endogenous F9 RAR, in the presence of RA): 12 fold | RA concentration at which TRE dependent CAT activity can be induced ([2]; G17-2 construct, F9 RAR, RA tested between 3×10^−11 and 10^−6 M): ~0.1 nM
